Data set [1] in a line: Pharmacokinetics: change in blood plasma concentration as time goes by. The note with it: male, Sprague-Dawley, rat, iv, 10 mg/kg. How it is done:
The Sprague Dawley (SD) adult male rat was slightly anesthetized with ketamine and acepromazine. Then, the femoral vein was subject to cannulation with physiological salt solution and the artery was subject to cannulation with polyethylene tubing (PE-50, intramedic, Clay-Adams) in which the physiological salt solution of 40 I.U./mL was filled, for which the heparin treatment was performed. […] At 0 (blank), 1, 5, 15, 30, 60 and 120 minutes after the administration, the blood 0.3 mL was respectively sampled, which was then centrifugally separated (13,000 rpm, 3 minutes) to separate about 0.1 mL of the blood plasma. Then, it was deproteinated and then analyzed with HPLC.
It was used the HPLC method using a reverse phase C-18 column (Shim-pack CLS-ODS, 4.6 mm I.D. 250 mm L., […] particle diameter). To the sampled blood plasma 0.1 mL were applied an internal standard material solution 50 μL ([…] daunomycin), the methanol 100 μL and the ethyl acetate 1.0 mL. The mixture solution was subject to vortexing for 3 minutes and centrifugally separated for 3 minutes (3,000 rpm) to take the organic layer only (1.0 mL), which was then dried with speed-vac. The remnants were re-composed into a moveable phase of 300 μL and 100 μL of which was then directly injected to a HPLC system. As the moveable phase of the HPLC system, a solution of the deionized water (pH=2.5 by phosphoric acid):acetonitrile=6:4 was used and a flow rate was 1 mL/min. As a HPLC detection method, a fluorescent analysis method was used at 470 nm excitation wavelength and 565 nm emission wavelength. The doxorubicin standard solution for making a calibration curve was made by dissolving it in the methanol so that it became 0.05, 0.1, 0.5, 1 and 3 μg/mL. When preparing a biological sample calibration curve, the standard solution 100 μL of doxorubicin 0.05, 0.1, 0.5, 1 and 3 μg/mL was put instead of methanol 100 μL for pre-treatment. Then, a calibration curve was made from which the doxorubicin in the blood plasma was obtained.

The test system of a further data set is hepatoma. Kind of data set: Tumor growth after administration in hepatoma model rat (MRI). Type of data set: in vivo. The note with it: hepatoma SD-rat, 2 mg/kg tail vein, three times every 5 days, one week after last injection.

Protocol for hepatoma: In order to make a hepatoma model, the water in which diethyl nitrosamine was diluted in a ratio of 1:10,000 was supplied to 8 weeks old SD-rat every day for 12 weeks until the tumor was generated. […] It was checked with MRI whether the tumor was after 10 weeks breeding. […] Again, the MRI photographing was made. The phleboclysis was performed three times every 5 days. Then, at one week after the last phleboclysis, the sizes of the tumors were compared through the MRI photographing.

Regarding `COc1cccc2c1C(=O)c1c(O)c3c(c(O)c1C2=O)C[C@@](O)(C(=O)CO)C[C@@H]3O[C@H]1C[C@H](N)[C@H](O)[C@H](C)O1` [FD, doxorubicin], in data set [1] (in vivo), the clearance was 37.9 ± 15.8 mL/min/kg and the half-life was 51.6 ± 34 min. The molecule also had an area under the curve (AUC) in data set [1] of 4850 ng·h/mL. The “size of the tumor in MRI photograph” value in the data set with hepatoma is “became larger”.

For the origin of these results see US8389002B2, “Anti-cancer medicine both for diagnosing and treating cancer” (Youl Chon Chemical Co., Ltd., priority 2007, dated 2013).
